# Test results as given in patent US9315531B2, “Titanocene-gold derivatives comprising thiolato ligands” (Research Foundation of the City University of New York, priority 2014, dated 2016).
# Legend:
# [1] = Solubility in DMSO/aqueous mixtures; type: physicochemical; settings: at micromolar concentrations
# From the text: (§1) Both compound 2 and compound 3 were less acidic than titanocene dichloride and were soluble in DMSO/water, DMSO/PBS and DMSO/media (1:99) mixtures at micromolar concentrations. These compounds were unusually stable methyl-containing titanocene moieties that were stable as solids at room temperature, while exposed to air in CDCl3 solution for at least five days.
# RPTC = assay: Cell viability assay (XTT), RPTC; type: cell-based; settings: 72 h incubation; human renal proximal tubular cells
# From the text: (§2) Cell Culture: Human renal cell carcinoma lines A498, Caki-1 and UO31, as well as the human prostate carcinoma cell lines DU145 and PC3 were newly obtained for these studies from the American Type Culture Collection (ATCC) (Manassas, Va., USA) and cultured in Roswell Park Memorial Institute (RPMI-1640) (Mediatech Inc., Manassas, Va.) media containing 10% fetal bovine serum (FBS, Life Technologies, Grand Island, N.Y.), 1% Minimum Essential Media (MEM) nonessential amino acids (NEAA, Mediatech) and 1% penicillin-streptomycin (PenStrep, Mediatech). HEK-293T cells were newly purchased from ATCC (Manassas, Va., USA) and maintained in Dulbecco's modified Eagle's medium (DMEM) (Mediatech) supplemented with 10% FBS, 1% NEAA and 1% PenStrep. Normal human renal epithelial cells (RPTC) were purchased from Lifeline Cell Technology (Lifeline Cell Technology, Frederick, Md., USA) and maintained in Lifeline's Renal Life Medium from Lifeline Cell Technology supplemented with 2.4 mM L-glutamine, 5 μg/mL rh insulin, 1.0 nM epinephrine, 10 nM triiodothyronine, 0.1 μg/mL hydrocortisone hemisuccinate, 10 ng/mL rhEGF, 0.50% FBS, 5 μg/mL transferrin PS. All cells were cultured at 37° C. and 5% CO2 in a humidified incubator.
# Cell Viability Assay: Cells were seeded at a concentration of 5000 cells/90 μl per well of either RPMI or DMEM without phenol red and without antibiotics, supplemented with 10% FBS and 2 mM L-glutamine into tissue culture grade 96-well flat bottom microplates (BioLite Microwell Plate, Fisher Scientific, Waltham, Mass., USA) and grown for 24 h at 37° C. in a humidified incubator. Afterwards, the intermediate dilutions of the compounds were added to the wells (10 μL) to obtain a final concentration ranging from 0.1 to 200 μM, and the cells were incubated for 24 h or 72 h. […] The optical absorbance of each well in a 96-well plate was quantified using BioTek ELx808 absorbance microplate reader (BioTek Winooski, Vt.) set at 450 nm wavelength. The percentage of surviving cells was calculated from the ratio of absorbance of treated to untreated cells.
# [2] = Stability in solution (DMSO-d6, CDCl3, DMSO/PBS); type: physicochemical
# From the text: as §1
# MAPKAPK3 = assay: Protein kinase expression in Caki-1 whole cell lysates (Western blot), MAPKAPK3; type: cell-based, human; settings: Caki-1, by 12 hours post-treatment
# Description: The Caki-1 cells were then lysed and a Western blot analysis was performed with anti-MAPKAPK-3 antibody. Blots were probed with anti-β-Actin antibody as a control for protein loading.
# Cell lysis and immunoblotting: Caki-1 cells were seeded into 10-cm dishes at a density of 2.2×10^6 and incubated for 24 hours. […] After microcentrifuging for 5 minutes at 4° C., pellets were treated with ice-cold lysis buffer with cell extraction buffer (BioSource, Camarillo, Calif.) containing 0.1% protease inhibitors and 1% phosphatase inhibitors cocktail (Fisher Scientific, Pittsburgh, Pa.) for 10 minutes, then sonicated for 10 seconds three times, and placed on ice. The lysed cells were centrifuged at 10,000×g at 4° C. for 10 minutes to remove the pellets representing the insoluble cell fraction.
# The protein concentration was determined with BCA protein dye reagent (Pierce, Fisher Scientific Pittsburgh, Pa.). […]
# HEK-293T = assay: Cell viability assay (XTT), HEK-293T; type: cell-based; settings: 72 h incubation; non-tumorigenic human embryonic kidney cell line
# Description: HEK-293T cells were newly purchased from ATCC (Manassas, Va., USA) and maintained in Dulbecco's modified Eagle's medium (DMEM) (Mediatech) supplemented with 10% FBS, 1% NEAA and 1% PenStrep. […] All cells were cultured at 37° C. and 5% CO2 in a humidified incubator.
# Caki-1 = assay: Cell viability assay (XTT), Caki-1; type: cell-based, human; settings: 72 h incubation
# From the text: as §2
# The optical absorbance of each well in a 96-well plate was quantified using BioTek ELx808 absorbance microplate reader (BioTek Winooski, Vt.) set at 450 nm wavelength. The percentage of surviving cells was calculated from the ratio of absorbance of treated to untreated cells.
# [3] = Pharmacokinetics in blood/plasma (ICP-MS, gold content)
# Description: Blood was collected by retro-orbital bleeding into heparinized blood collection vials on ice at time intervals of 30 minutes, 2 hours, 6 hours, 24 hours, and 48 hours after the first dose.
# Gold and titanium content was determined using ICP-MS. […] The mixture was heated at 90° C. for 5 hours. After cooling, the samples were diluted with water, 40 ppb of Indium internal standard was added and analyzed in a Thermo Scientific XSERIES 2 ICP-MS with ESI PC3 Peltier cooled spray chamber with SC-FAST injection loop and SC-4 autosampler. All the elements were analyzed using He/H2 collision-reaction mode. Plasma from control mice was spiked with the test compounds to determine the extraction efficiency of gold and titanium.
# Pharmacokinetic estimates were obtained from the plasma concentration-time profiles by non-compartmental analysis.
# Caki-1 renal carcinoma = assay: Caki-1 xenografts in mice, tumor growth
# Description: Study of the effects of 2 in Caki-1 xenografts in mice: twelve female NOD.CB17-Prkdc scid/J (non-obese diabetic—severe combined immunodeficiency) from Jackson Laboratory (Bar Harbor, Me. and Sacramento, Calif., USA) were used for the xenograft experiment (ages 8 to 12 weeks and weighing 19-22 g) were used. Each mouse received 8×10^6 tumor cells subcutaneously without anesthesia. Exponentially growing Caki-1 human kidney cancer cells were suspended in 1:1 ratio 50 μl phosphate-buffered saline (PBS; pH 7.4) plus 50 μl of matrigel (BD Biosciences, San Jose, Calif., USA) were injected subcutaneously on both left and right flank of each mice. The diameter of the tumors was measured once weekly using an electronic digital caliper and the tumor volume (TV) was calculated according to the empirical equation TV=(a)(b^2)×π/6 where a=longest dimension; b=largest dimension orthogonal to a. The median volumes of each group were normalized to the initial tumor volume resulting in the relative tumor volume. […] Treatment started when tumors were palpable (about 6 mm diameter). Mice were randomized to treatment groups based on their starting tumor burden at twelve weeks of age to ensure equivalent distribution between the three groups. At trial end-point the mice were sacrificed and tumors measured again after excision and then processed for further analysis. Histological as well as biochemical evaluations of blood, liver, spleen, and kidney, were conducted.
substance,measurement,setting,value
[(η-C5H5)2TiMe(μ-mba)Au(PPh3)] [Compound 2],"solubility in DMSO/water, DMSO/PBS and DMSO/media (1:99) mixtures",[1],soluble
same,IC50,RPTC,2670 ± 120 nM
same,half-life in DMSO-d6,[2]; DMSO-d6,eight
same,half-life fold larger than corresponding compound 6 / compound 7,"[2]; DMSO-d6, same solvent",sixteen
same,UV-vis spectra over time,"[2]; micromolar concentration in 1:99 DMSO/PBS, 23 h, physiological pH",did not change over time
same,expression of MAPKAPK3,MAPKAPK3,dramatic decreases in expression
same,IC50,HEK-293T,490 ± 0.8 nM
same,IC50,Caki-1,120 ± 3 nM
same,blood concentration at the time of the second dose,"[3]; 48 hours after the first dose, 3 mg/kg",40400 ± 6000 ng/mL
same,absorption into blood,[3]; blood levels up to twenty-four hours,slow absorption
same,decrease in tumor size (shrinkage) from the starting volume,"Caki-1 renal carcinoma; between day 1 and day 28 of treatment, total of 14 doses",67%
same,Primary Tumor,"Caki-1 renal carcinoma; tumor measured on day 28, after 14th dose, every other day dosing (compound 6 […], compound 2 3 mg/kg)",41.33 ± 13.00 mm^3
same,weight loss in treated mice,"Caki-1 renal carcinoma; xenograft protocol, 14 doses every other day",no weight loss
